Results: patent US10478423B2, “Substituted indazole derivatives active as kinase inhibitiors” (NERVIANO MEDICAL SCIENCES S.R.L., priority 2011, dated 2019)
pIC50: −log10 of the molar value.

How the values were obtained:
MOLM-13 cells = assay: In vitro cell proliferation assay (CellTiter-Glo), MOLM-13; format: cell-based; details: human acute leukemia cells bearing FLT3-ITD mutation, 72 h
Method: (§1) The human acute leukemia MOLM-13 AND MV-4-11 cells, bearing a FLT3-ITD mutation, were seeded (5000 cells/well) in white 384 well-plates in complete medium (RPMI 1640 plus 10% Fetal bovine serum) and treated with compounds dissolved in 0.1% DMSO, 24 h after seeding. The cells were incubated at 37° C. and 5% CO2 and after 72 h the plates were processed using CellTiter-Glo assay (Promega) following the manufacturer's instruction.
(§2) CellTiter-Glo is a homogenous method based on the quantification of the ATP present, an indicator of metabolitically active cells. ATP was quantified using a system based on luciferase and D-luciferin resultant into light generation. The luminescent signal was proportional to the number of cells present in culture.
(§3) Briefly, 25 microL/well reagent solution were added to each well and, after 5 minutes shaking, microplates were read by Envision (PerkinElmer) luminometer. Inhibitory activity was evaluated comparing treated versus control data using Symyx Assay Explorer (Symyx Technologies Inc.) program. IC50 was calculated using sigmoidal interpolation curve.

MV-4-11 cells = assay: In vitro cell proliferation assay (CellTiter-Glo), MV-4-11; format: cell-based; details: MV4-11, human acute leukemia cells bearing FLT3-ITD mutation, 72 h
Method: as §1, §2, §3

pIC50 (MOLM-13 cells): 5.41
pIC50 (MV-4-11 cells): 5.26
Compound: CN(C)c1ccc(C(=O)Nc2n[nH]c3cc(OCc4ccccc4)ccc23)cc1 [Ref. Compound]
